{
  "source": "ChEMBL document CHEMBL1201862",
  "about": "“PubChem BioAssay data set” (2004)",
  "key": {"[1]": {"target": "DNA dC->dU-editing enzyme APOBEC-3G (Homo sapiens, UniProt Q9HC16)", "sequence (Q9HC16 whole entry)": "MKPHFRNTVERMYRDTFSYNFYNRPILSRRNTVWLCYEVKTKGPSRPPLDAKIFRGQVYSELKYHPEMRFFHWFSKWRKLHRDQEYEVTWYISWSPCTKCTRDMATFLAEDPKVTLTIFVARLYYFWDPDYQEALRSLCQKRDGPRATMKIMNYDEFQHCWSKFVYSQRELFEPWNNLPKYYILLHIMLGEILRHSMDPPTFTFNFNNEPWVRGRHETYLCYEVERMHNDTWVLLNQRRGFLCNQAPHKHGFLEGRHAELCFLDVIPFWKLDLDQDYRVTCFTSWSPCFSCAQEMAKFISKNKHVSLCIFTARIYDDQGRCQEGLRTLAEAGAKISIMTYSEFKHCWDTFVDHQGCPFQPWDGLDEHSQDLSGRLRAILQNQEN", "assay": "Dose Response confirmation of small molecule APOBEC3G DNA Deaminase Inhibitors via a fluorescence-based single-stranded DNA deaminase assay. [Related pubchem assays (depositor defined):AID493012, AID493028]", "type": "functional"}, "[2]": {"target": "T1, Sentrin-specific protease 7 (Homo sapiens, UniProt Q9BQF6)", "T1 sequence (Q9BQF6 whole entry)": "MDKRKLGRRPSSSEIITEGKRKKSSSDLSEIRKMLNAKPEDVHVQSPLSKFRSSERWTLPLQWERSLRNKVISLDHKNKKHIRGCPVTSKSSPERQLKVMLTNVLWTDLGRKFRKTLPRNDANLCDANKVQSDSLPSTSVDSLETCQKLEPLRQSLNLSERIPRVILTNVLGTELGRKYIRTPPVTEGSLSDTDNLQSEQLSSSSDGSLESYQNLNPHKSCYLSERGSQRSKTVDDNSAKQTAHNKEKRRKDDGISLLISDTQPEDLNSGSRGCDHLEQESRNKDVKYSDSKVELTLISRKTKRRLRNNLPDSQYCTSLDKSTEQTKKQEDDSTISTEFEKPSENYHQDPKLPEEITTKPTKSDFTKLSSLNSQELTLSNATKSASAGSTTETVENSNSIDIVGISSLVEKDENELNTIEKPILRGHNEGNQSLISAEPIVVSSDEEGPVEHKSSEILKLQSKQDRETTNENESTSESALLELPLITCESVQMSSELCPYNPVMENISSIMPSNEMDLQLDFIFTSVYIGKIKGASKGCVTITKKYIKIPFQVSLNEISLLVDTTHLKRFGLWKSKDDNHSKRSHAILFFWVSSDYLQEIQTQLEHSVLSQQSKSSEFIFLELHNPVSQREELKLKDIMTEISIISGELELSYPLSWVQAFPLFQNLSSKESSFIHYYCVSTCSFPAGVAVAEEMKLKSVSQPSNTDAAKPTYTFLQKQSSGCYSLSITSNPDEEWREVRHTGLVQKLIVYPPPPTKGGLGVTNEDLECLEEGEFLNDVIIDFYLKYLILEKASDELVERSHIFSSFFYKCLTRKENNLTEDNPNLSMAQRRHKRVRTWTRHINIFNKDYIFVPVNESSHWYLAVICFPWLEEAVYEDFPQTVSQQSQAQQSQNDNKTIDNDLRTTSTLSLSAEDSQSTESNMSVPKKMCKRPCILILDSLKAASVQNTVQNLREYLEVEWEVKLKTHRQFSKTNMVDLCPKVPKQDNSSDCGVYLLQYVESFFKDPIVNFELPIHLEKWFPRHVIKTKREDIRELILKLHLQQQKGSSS", "type": "functional"}, "[3]": {"assay": "THP-1 cell cytotoxicity, dose response, cytotoxicity control for Vif-APOBEC3G degradation inhibitor project, THP-1 cells (AID 1117359)", "type": "functional", "conditions": "Human immunodeficiency virus 1, THP-1"}, "[4]": {"assay": "HeLa cell cytotoxicity, dose response, cytotoxicity control for MgcRacGAP inhibitor project (AID 624300)", "type": "functional"}, "[5]": {"target": "Voltage-gated N-type calcium channel alpha-1B subunit/Amyloid beta A4 precursor protein-binding family A member 1 (Homo sapiens, UniProt Q00975+Q02410)", "type": "protein assay"}, "Caspase-3": {"target": "T2, Caspase-3 (Homo sapiens, UniProt P42574)", "T2 sequence (P42574 whole entry)": "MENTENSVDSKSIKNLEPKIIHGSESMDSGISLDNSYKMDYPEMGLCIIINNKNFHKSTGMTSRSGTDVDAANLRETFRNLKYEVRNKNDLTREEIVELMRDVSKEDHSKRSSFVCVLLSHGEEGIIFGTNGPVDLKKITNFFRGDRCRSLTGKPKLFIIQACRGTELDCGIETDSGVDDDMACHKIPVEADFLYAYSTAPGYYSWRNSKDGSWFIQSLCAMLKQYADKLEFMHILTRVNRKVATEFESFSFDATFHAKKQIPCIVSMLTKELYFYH", "assay": "Dose-response confirmation of uHTS inhibitor hits of Sentrin-Specific Protease 8 in a Caspase-3 Fluorescence assay.", "type": "functional"}, "[6]": {"target": "Dual specificity tyrosine-phosphorylation-regulated kinase 1A (Homo sapiens, UniProt Q13627)", "type": "functional"}, "[7]": {"target": "Leucine-rich repeat serine/threonine-protein kinase 2 (Homo sapiens, UniProt Q5S007)", "type": "functional"}, "[8]": {"target": "Cyclin-dependent kinase 9 (Homo sapiens, UniProt P50750)", "sequence (P50750 whole entry)": "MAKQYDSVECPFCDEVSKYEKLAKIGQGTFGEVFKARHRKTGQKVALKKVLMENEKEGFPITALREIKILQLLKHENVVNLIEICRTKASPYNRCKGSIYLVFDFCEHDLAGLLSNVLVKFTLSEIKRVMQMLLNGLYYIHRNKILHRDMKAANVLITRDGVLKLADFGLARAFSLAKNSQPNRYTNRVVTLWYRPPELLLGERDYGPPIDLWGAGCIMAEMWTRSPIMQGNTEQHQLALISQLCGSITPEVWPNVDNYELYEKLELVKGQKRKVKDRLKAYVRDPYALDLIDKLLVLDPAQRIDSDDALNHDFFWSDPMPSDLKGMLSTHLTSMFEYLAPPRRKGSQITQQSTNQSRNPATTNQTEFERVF", "type": "functional"}, "[9]": {"target": "Platelet-derived growth factor receptor alpha (Homo sapiens, UniProt P16234)", "assay": "Navigating the Kinome. Panel member name: PDGFRA", "type": "functional"}, "[10]": {"target": "Tyrosine-protein kinase BTK (Homo sapiens, UniProt Q06187)", "sequence (Q06187 whole entry)": "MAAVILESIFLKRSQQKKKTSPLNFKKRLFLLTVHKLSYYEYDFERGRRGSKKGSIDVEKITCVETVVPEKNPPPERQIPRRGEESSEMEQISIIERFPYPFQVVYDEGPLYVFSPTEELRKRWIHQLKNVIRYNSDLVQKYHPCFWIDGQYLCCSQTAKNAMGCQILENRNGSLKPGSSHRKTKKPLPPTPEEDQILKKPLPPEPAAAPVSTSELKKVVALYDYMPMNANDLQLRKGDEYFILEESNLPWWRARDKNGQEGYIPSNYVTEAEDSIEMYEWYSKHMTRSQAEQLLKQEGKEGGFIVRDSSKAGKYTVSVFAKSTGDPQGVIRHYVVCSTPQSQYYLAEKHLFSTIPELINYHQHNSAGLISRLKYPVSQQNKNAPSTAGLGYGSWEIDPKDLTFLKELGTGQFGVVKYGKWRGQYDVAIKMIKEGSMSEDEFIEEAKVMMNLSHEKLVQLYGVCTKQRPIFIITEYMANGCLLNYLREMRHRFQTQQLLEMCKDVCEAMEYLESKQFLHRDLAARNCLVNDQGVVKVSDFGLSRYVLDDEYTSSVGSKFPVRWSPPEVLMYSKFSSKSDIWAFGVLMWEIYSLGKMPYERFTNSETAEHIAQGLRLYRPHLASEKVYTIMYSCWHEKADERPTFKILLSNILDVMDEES", "type": "functional"}, "[11]": {"target": "Leukocyte tyrosine kinase receptor (Homo sapiens, UniProt P29376)", "sequence (P29376 whole entry)": "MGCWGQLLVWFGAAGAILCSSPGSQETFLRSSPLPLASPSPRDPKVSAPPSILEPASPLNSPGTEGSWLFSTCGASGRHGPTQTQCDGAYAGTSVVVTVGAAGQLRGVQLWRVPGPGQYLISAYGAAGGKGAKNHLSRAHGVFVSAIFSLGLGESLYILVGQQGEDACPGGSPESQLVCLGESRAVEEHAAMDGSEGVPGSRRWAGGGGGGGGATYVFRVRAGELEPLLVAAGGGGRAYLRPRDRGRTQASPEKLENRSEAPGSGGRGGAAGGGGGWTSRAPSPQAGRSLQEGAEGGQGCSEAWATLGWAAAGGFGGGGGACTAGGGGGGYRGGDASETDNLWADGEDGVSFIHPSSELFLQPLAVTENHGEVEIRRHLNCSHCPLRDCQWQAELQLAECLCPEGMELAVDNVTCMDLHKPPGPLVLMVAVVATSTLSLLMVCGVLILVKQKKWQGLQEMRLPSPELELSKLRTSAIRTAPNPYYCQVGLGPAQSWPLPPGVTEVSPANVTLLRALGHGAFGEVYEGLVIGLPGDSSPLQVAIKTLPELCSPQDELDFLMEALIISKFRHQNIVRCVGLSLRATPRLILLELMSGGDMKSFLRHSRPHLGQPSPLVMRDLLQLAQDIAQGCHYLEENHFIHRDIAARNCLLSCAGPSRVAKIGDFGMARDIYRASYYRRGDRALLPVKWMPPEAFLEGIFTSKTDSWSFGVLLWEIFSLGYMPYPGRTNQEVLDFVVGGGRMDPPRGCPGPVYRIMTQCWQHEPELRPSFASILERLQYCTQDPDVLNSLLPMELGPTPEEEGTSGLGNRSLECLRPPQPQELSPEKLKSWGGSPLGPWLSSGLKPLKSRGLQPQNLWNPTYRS", "assay": "Navigating the Kinome. Panel member name: LTK", "type": "functional"}, "[12]": {"target": "High affinity nerve growth factor receptor (Homo sapiens, UniProt P04629)", "type": "functional"}, "[13]": {"target": "Mitogen-activated protein kinase 14 (Homo sapiens, UniProt Q16539)", "sequence (Q16539 whole entry)": "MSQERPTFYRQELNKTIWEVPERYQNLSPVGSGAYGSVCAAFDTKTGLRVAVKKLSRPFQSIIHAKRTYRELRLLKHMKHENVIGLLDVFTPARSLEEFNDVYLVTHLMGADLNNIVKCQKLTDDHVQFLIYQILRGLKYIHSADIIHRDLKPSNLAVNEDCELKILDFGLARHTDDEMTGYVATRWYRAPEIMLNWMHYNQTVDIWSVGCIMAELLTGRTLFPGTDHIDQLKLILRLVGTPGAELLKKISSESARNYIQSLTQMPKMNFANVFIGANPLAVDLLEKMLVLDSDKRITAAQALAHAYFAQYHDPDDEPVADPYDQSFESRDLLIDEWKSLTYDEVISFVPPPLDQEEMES", "type": "functional"}, "[14]": {"target": "Mitogen-activated protein kinase kinase kinase kinase 2 (Homo sapiens, UniProt Q12851)", "sequence (Q12851 whole entry)": "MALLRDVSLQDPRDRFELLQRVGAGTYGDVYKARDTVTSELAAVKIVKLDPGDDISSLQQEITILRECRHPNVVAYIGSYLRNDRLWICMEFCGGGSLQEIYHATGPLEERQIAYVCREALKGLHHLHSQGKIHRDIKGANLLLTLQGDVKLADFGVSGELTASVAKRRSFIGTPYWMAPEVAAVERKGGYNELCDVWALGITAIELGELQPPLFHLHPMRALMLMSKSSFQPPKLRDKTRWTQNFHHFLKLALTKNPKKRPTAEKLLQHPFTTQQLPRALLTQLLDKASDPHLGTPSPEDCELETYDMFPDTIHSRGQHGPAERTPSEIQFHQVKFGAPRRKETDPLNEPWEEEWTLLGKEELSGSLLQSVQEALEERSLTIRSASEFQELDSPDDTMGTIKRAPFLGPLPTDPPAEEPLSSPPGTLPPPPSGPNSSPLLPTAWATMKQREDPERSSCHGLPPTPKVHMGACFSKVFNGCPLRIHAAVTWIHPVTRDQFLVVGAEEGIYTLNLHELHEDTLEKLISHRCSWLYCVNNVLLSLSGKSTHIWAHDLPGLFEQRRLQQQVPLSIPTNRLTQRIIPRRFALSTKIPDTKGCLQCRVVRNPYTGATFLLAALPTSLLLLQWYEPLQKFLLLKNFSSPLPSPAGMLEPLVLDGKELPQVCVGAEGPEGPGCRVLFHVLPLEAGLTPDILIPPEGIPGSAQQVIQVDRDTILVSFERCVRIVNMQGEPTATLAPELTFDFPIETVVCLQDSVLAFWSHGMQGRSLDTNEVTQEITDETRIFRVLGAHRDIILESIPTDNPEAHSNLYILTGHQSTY", "type": "functional"}, "[15]": {"target": "Mitogen-activated protein kinase 9 (Homo sapiens, UniProt P45984)", "type": "functional"}, "[16]": {"target": "Inhibitor of nuclear factor kappa-B kinase subunit epsilon (Homo sapiens, UniProt Q14164)", "sequence (Q14164 whole entry)": "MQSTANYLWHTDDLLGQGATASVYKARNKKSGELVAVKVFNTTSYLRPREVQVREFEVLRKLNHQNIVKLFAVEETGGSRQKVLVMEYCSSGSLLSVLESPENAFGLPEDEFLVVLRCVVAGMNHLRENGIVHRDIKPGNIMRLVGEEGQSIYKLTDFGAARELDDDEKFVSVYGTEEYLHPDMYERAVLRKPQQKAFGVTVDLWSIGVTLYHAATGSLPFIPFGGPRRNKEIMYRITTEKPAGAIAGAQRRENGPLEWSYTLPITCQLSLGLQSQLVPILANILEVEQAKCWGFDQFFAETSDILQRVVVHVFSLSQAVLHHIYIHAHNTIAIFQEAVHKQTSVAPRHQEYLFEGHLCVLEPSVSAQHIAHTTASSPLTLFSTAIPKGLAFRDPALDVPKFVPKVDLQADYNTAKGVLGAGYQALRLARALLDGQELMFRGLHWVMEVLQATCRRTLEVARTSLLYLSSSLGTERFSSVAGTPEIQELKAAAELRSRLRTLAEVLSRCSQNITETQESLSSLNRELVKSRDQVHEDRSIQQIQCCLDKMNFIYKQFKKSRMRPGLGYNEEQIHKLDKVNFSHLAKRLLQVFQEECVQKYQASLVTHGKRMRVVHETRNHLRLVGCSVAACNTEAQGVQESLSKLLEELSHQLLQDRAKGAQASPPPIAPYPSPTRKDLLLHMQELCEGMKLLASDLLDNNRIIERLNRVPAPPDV", "assay": "Navigating the Kinome. Panel member name: IKBKE", "type": "functional"}, "[17]": {"target": "T3, Zinc finger protein mex-5 (Caenorhabditis elegans, UniProt Q9XUB2)", "T3 sequence (Q9XUB2 whole entry)": "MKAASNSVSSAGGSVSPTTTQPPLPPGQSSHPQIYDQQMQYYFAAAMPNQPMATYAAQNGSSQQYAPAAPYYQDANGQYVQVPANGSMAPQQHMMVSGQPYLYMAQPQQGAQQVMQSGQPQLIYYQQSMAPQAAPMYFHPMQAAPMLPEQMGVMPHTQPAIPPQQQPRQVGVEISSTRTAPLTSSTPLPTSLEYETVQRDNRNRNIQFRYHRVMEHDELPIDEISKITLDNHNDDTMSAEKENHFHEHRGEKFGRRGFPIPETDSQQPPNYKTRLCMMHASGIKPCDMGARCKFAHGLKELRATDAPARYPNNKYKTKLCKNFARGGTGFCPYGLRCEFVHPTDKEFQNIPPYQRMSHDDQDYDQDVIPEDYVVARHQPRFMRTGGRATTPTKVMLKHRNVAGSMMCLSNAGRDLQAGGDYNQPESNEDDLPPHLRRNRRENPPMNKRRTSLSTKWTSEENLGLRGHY", "assay": "MEX-5/TCR-2 RNA interaction inhibitors, dose response, biochemical, C. elegans, fluorescence polarization (AID 1960)"}, "Albumin": {"target": "Albumin (Bos taurus, UniProt P02769)", "sequence (P02769 whole entry)": "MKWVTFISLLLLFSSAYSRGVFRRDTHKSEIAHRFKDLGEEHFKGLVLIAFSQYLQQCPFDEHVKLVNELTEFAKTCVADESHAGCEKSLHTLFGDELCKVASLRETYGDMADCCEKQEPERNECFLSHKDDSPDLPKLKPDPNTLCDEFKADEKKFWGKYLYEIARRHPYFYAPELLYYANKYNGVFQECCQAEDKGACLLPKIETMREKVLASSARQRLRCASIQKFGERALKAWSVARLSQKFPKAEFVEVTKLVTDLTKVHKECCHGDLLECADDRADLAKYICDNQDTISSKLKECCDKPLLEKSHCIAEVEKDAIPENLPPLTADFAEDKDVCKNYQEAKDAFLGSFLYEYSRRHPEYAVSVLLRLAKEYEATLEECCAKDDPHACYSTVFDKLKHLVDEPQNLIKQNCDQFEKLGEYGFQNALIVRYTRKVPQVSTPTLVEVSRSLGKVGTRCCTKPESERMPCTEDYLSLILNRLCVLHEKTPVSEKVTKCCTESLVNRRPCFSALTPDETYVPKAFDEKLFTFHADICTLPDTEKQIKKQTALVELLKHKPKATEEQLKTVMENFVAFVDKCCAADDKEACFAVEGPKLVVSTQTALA", "assay": "Counterscreen for inhibitors of T-cell receptor (TCR)-CD3 interaction: Fluorescence-based biochemical high throughput dose response assay to identify inhibitors of T-cell receptor (TCR)-CD3 interaction using a TAMRA-labeled BSA probe.", "type": "functional"}},
  "note": "Active and inactive are the calls of the source.",
  "data": [
    {"smiles": "CC(=O)N(C1=C(Cl)C(=O)c2ccccc2C1=O)c1ccc(C(=O)O)cc1", "values": [
      {"measurement": "IC50", "setting": "[1]", "result": "8.03 µM (active)"},
      {"measurement": "IC50", "setting": "[2]", "result": "8.9 µM (active)"},
      {"measurement": "CC50", "setting": "[3]", "result": "32.4 µM (active)"},
      {"measurement": "CC50", "setting": "[4]", "result": "36.1 µM (active)"},
      {"measurement": "IC50", "setting": "[5]", "result": "3.35 µM (active)"}
    ]},
    {"smiles": "CC1(C)C=C2C(=NN(c3ccccc3)C(N)=C2C#N)CO1", "values": [
      {"measurement": "IC50", "setting": "Caspase-3", "result": "1.09 µM (active)"}
    ]},
    {"smiles": "Cc1ccc(-c2cc3nc(Br)cnc3[nH]2)cc1", "values": [
      {"measurement": "Ki", "setting": "[6]", "result": "> 2 µM (inactive)"},
      {"measurement": "Ki", "setting": "[7]", "result": "> 2.51 µM (inactive)"},
      {"measurement": "Ki", "setting": "[8]", "result": "> 1.58 µM (inactive)"},
      {"measurement": "Ki", "setting": "[9]", "result": "> 2.51 µM (inactive)"},
      {"measurement": "Ki", "setting": "[10]", "result": "> 6.31 µM (inactive)"},
      {"measurement": "Ki", "setting": "[11]", "result": "> 2.51 µM (inactive)"},
      {"measurement": "Ki", "setting": "[12]", "result": "> 3.16 µM (inactive)"},
      {"measurement": "Ki", "setting": "[13]", "result": "> 3.98 µM (inactive)"},
      {"measurement": "Ki", "setting": "[14]", "result": "> 2.51 µM (inactive)"},
      {"measurement": "Ki", "setting": "[15]", "result": "> 3.98 µM (inactive)"},
      {"measurement": "Ki", "setting": "[16]", "result": "> 3.16 µM (inactive)"}
    ]},
    {"smiles": "O=C1C=C(O)c2c(O)cc(O)c(O)c2C1=O", "values": [
      {"measurement": "EC50", "setting": "[17]", "result": "0.899 µM (active)"},
      {"measurement": "IC50", "setting": "Albumin", "result": "> 94.1 µM (inactive)"}
    ]}
  ]
}
